What was measured:
[1] = pH of carboxylic acid mixed with PBS buffer, without tyrosinase; format: physicochemical; settings: in PBS buffer, absence of tyrosinase
[2] = biological target: T1, tyrosinase (Agaricus bisporus, UniProt C7FF04); experiment: Kinetic analysis of tyrosinase (Lineweaver–Burk); format: biochemical, mushroom; settings: for Ki: GraphPad Prism, mixed-model or competitive model, read-out: inhibition constant (Ki); for inhibition mechanism: Lineweaver–Burk double-reciprocal plots; for inhibition constant (KIS) for enzyme–substrate complex: mixed-type inhibitors
T1 construct: purchased Sigma-Aldrich
T1 sequence (C7FF04 1-392 limits assumed): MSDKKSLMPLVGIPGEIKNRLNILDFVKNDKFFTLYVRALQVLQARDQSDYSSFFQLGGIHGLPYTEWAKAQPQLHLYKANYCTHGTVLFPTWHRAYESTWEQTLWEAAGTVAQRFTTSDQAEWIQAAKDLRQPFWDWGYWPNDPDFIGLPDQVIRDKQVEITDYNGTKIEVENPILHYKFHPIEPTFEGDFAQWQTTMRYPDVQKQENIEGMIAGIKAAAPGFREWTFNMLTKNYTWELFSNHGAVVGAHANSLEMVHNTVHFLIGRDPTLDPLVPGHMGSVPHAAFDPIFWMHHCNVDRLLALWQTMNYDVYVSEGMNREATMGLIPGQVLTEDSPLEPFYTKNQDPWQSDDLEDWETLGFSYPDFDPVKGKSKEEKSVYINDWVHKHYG
Procedure: L-DOPA solutions at various concentrations (0.5, 1, 2, and 4 mM) were prepared in PBS buffer (pH 7.4) and mixed with carboxylic acids at different concentrations and tyrosinase (final concentration of 60 U/mL). […] The reaction rates were calculated based on the OD values. To analyze the inhibition types of the four carboxylic acids on tyrosinase, double-reciprocal Lineweaver–Burk plots were constructed with 1/v (reaction rate) as the y-axis and 1/[S] (substrate concentration) as the x-axis. The maximum reaction velocity (Vmax) and Michaelis constant (Km) were determined using GraphPad Prism 10 (GraphPad Software, Massachusetts, USA).

[3] = system: B16-F10 cells; experiment: Melanin content analysis of B16-F10 cells (α-MSH stimulated); format: cell-based; settings: Mus musculus; 6 mM, B16-F10, α-MSH 1 μM, 48 h; read-out: melanin inhibition rate
Procedure: A 900 μL cell suspension with an approximate density of 50% confluence was seeded into a 12-well plate and cultured for 24 h at 37 °C with 5% CO2. Subsequently, various concentrations of carboxylic acids were added, and the cells were further incubated for 1 h. Then, 1 μL of 1 mM α-melanocyte-stimulating hormone (α-MSH) solution was added to achieve a final concentration of 1 μM, and the cells were cultured for an additional 48 h at 37 °C with 5% CO2 to stimulate melanogenesis. Afterward, the cells were digested with trypsin, collected by centrifugation at 10,000 rpm for 5 min (Andreas Hettich GmbH & Co., KG, Tuttlingen, Germany), and the supernatant was discarded. Each tube was treated with 200 μL of 1 M NaOH solution and incubated in a water bath at 60 °C for 20 min. Following incubation, the samples were vortexed to ensure homogeneity, and 200 μL of each sample was transferred to a 96-well plate. The absorbance at 405 nm (OD405) was measured using a microplate reader (Infinite 200Pro, Tecan), and the data were recorded to calculate the melanin content, with deionized water serving as the control. The reduction in melanin content was calculated with Equation (3):(3) [(OD405 of control−OD405 of sample)/OD405 of control]×100%

[4] = L-DOPA auto-oxidation analysis; settings: for IC50: 37 °C, 12 h, calculated using SPSS, read-out: IC50 for L-DOPA auto-oxidation inhibition
Procedure: A 5 mM L-DOPA solution was prepared in PBS buffer (pH 7.4). Subsequently, 240 μL of carboxylic acid solution, 360 μL of L-DOPA solution, and 120 μL of PBS buffer were sequentially mixed. The mixture was then incubated at 37 °C for 12 h. […] Deionized water was used as the control. The inhibition of L-DOPA auto-oxidation was calculated using the same method as the melanin content analysis.

[5] = biological target: tyrosinase from BioVision, Inc. (claimed to be of human origin); design: method as in PMID 38909081; settings: cited from earlier work
[6] = system: rabbits and mice; settings: in vivo; cited from earlier work

Row | Compound | pH ([1]; 6 mM) | Ki [2] | inhibition mechanism [2] | inhibition constant (KIS) for enzyme–substrate complex [2] | inhibition at 6000 µM [3] | L-DOPA auto-oxidation inhibition rate ([4]; 1.5 mM) | IC50 [4] | pH ([1]; 3 mM) | IC50 [5] | oral LD50 [6] | L-DOPA auto-oxidation inhibition rate ([4]; 0.75 mM)
1 | O=C(O)C(O)Cc1ccccc1 (centres unmarked) [3-phenyllactic acid] | around 6 | 1570 µM | mixed-type inhibition | 8.526 mM | 27.2% | exceeding 80% | 630 µM | – | – | – | –
2 | O=C(O)CC(O)C(=O)O (centres unmarked) [malic acid] | 3.5 | 606 µM | mixed-type inhibition | 3.066 mM | 33.6% | – | 380 µM | 4.6 | 87.5 µM | 1600 to 3200 mg/kg | exceeding 80%
